ChEMBL document CHEMBL5360672, “Identification of Novel Dual-Target Estrogen Receptor α Degraders with Tubulin Inhibitory Activity for the Treatment of Endocrine-Resistant Breast Cancer” (J Med Chem, 2023)
Activity calls are given as the source filed them. The calls are words filed in the database; no cut-off is given here.

Legend:
[1] = test system: MCF7; assay: Antiproliferative activity against ERalpha positive human MCF7 cells assessed as inhibition of cell proliferation incubated for 72 hrs by CCK8 assay; format: functional, cell-based; settings: MCF7, 72 h
[2] = test system: T47D; assay: Antiproliferative activity against human T47D cells harboring ERalpha D538G mutant assessed as inhibition of cell proliferation incubated for 72 hrs by CCK8 assay; format: functional, cell-based
[3] = Antiproliferative activity against human Tamoxifen-resistant LCC2 cells assessed as inhibition of cell proliferation incubated for 72 hrs by CCK8 assay; format: functional, cell-based
[4] = Cytotoxicity against human MCF-10A cells assessed as inhibition of cell proliferation incubated for 72 hrs by CCK8 assay; format: toxicity, cell-based
[5] = biological target: Estrogen receptor beta (Homo sapiens) (UniProt Q92731); assay: Binding affinity to human ERbeta assessed as relative binding affinity incubated under vibration for 1 min followed by 2 hrs incubation under dark condition by fluorescence polarization assay relative to estradiol; settings: time 121.0 min
[6] = Selectivity index, ratio of IC50 for cytotoxicity against human MCF-10A cells to IC50 for antiproliferative activity against human MCF7 cells; format: toxicity, cell-based; settings: MCF-10A cells and MCF7 cells, read-out: Ratio IC50
[7] = organism: Homo sapiens; assay: Selectivity ratio of relative binding affinity for human ERalpha to relative binding affinity to human ERbeta
[8] = test system: T47D; assay: Antiproliferative activity against human T47D cells harboring ERalpha Y537S mutant assessed as inhibition of cell proliferation incubated for 72 hrs by CCK8 assay; format: functional, cell-based
[9] = biological target: T1, Estrogen receptor (Homo sapiens) (UniProt P03372); assay: Binding affinity to human ERalpha assessed as relative binding affinity incubated under vibration for 1 min followed by 2 hrs incubation under dark condition by fluorescence polarization assay relative to estradiol; settings: time 121.0 min
T1 sequence (whole entry): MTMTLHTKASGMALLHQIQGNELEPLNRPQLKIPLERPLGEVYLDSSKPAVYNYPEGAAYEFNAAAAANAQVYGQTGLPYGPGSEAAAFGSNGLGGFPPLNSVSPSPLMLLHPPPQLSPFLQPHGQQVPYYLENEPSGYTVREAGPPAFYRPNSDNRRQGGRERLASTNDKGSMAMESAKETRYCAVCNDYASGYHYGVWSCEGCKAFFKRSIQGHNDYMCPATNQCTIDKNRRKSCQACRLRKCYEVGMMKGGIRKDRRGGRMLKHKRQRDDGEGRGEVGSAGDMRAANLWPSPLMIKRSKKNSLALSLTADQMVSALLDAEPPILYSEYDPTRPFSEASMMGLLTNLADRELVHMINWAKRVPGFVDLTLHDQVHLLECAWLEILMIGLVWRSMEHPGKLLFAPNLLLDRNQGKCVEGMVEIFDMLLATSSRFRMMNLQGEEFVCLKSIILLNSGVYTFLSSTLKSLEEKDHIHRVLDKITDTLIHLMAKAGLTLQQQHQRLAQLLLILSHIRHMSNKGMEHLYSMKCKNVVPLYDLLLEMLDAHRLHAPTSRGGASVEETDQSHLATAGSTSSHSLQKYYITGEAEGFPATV

[10] = biological target: T1, Estrogen receptor (Homo sapiens); assay: Induction of ERalpha degradation in human MCF7 cells at 5 uM incubated for 24 hrs by Western blot analysis relative to SeCN-OBHSA derivatives; format: cell-based
[11] = test system: T47D; assay: Antiproliferative activity against ERalpha positive human T47D cells assessed as inhibition of cell proliferation incubated for 72 hrs by CCK8 assay; format: functional, cell-based

Estrogen receptor beta (Homo sapiens), sequence (Q92731 whole entry): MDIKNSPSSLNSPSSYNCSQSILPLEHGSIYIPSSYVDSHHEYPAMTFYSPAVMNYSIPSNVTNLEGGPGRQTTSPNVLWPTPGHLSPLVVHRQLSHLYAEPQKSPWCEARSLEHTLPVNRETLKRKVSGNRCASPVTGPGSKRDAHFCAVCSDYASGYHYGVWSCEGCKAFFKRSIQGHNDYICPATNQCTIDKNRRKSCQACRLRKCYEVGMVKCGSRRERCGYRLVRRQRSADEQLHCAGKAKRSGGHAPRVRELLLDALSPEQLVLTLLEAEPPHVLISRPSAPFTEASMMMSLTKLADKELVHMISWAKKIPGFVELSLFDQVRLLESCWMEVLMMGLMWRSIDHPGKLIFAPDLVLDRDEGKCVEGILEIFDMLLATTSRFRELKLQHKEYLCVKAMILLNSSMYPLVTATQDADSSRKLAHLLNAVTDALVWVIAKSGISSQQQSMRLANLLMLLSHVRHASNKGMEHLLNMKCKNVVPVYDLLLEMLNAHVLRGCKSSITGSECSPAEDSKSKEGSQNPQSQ

Compound | IC50 [1] | IC50 [2] | IC50 [3] | IC50 at 72 h [4] | RBA [5] | selectivity ratio [6] | Selectivity ratio [7] | IC50 [8] | RBA [9] | Activity [10] | IC50 [11]
COc1ccc(N(CC(F)(F)F)S(=O)(=O)C2CC3OC2C(c2ccc(NC(=O)CCCCCCC[Se]C#N)cc2)=C3c2ccc(O)cc2)cc1 (centres undefined) | 0.44 µM | 12.7 µM | 10.3 µM | 38.2 µM | 0.09% | 86.8 | 8.44 | 6.27 µM | 0.76% | Active | 20.2 µM
CCN(c1ccc(Cl)cc1)S(=O)(=O)C1CC2OC1C(c1ccc(NC(=O)CCCCC[Se]C#N)cc1)=C2c1ccc(O)cc1 (centres undefined) | 0.44 µM | 6.76 µM | 4 µM | 29.2 µM | 0.06% | 66.3 | 38.5 | 4.51 µM | 2.31% | Active | 5.66 µM
N#C[Se]CCCCCC(=O)Nc1ccc(C2=C(c3ccc(O)cc3)C3CC(S(=O)(=O)N(CC(F)(F)F)c4ccc(F)cc4)C2O3)cc1 (centres undefined) | 0.17 µM | 2.71 µM | 4.48 µM | 12.2 µM | 0.38% | 71.9 | 18.9 | 2.7 µM | 7.18% | Active | 5.82 µM
CCN(c1ccc(OC)cc1)S(=O)(=O)C1CC2OC1C(c1ccc(NC(=O)CCC[Se]C#N)cc1)=C2c1ccc(O)cc1 (centres undefined) | 1.63 µM | 8.97 µM | 17.4 µM | > 100 µM | 0.17% | > 61.4 | 6.29 | 6.69 µM | 1.07% | Active | 7.44 µM
CCN(c1ccc(OC)cc1)S(=O)(=O)C1CC2OC1C(c1ccc(NC(=O)CCCCCCC[Se]C#N)cc1)=C2c1ccc(O)cc1 (centres undefined) | 0.66 µM | 7.35 µM | 13.4 µM | 29.8 µM | 0.1% | 45.1 | 26.1 | 7.01 µM | 2.61% | Active | 18 µM
COc1cccc(N(CC(F)(F)F)S(=O)(=O)C2CC3OC2C(c2ccc(NC(=O)CCCCC[Se]C#N)cc2)=C3c2ccc(O)cc2)c1 (centres undefined) | 0.47 µM | 5.16 µM | 6.73 µM | 26.9 µM | 0.13% | 57.1 | 11.1 | 4.58 µM | 1.44% | Active | 9.62 µM
CCN(c1ccccc1Cl)S(=O)(=O)C1CC2OC1C(c1ccc(NC(=O)CCCCC[Se]C#N)cc1)=C2c1ccc(O)cc1 (centres undefined) | 0.16 µM | 2.37 µM | 2.17 µM | 17.3 µM | 0.09% | 108 | 29.9 | 2.18 µM | 2.69% | Active | 3.11 µM
COc1ccc(N(CC(F)(F)F)S(=O)(=O)C2CC3OC2C(c2ccc(NC(=O)CCC[Se]C#N)cc2)=C3c2ccc(O)cc2)cc1 (centres undefined) | 2.95 µM | 17.2 µM | 10.1 µM | > 100 µM | 0.38% | > 33.9 | 1.21 | 11.7 µM | 0.46% | Active | 19.9 µM
N#C[Se]CCCCCC(=O)Nc1ccc(C2=C(c3ccc(O)cc3)C3CC(S(=O)(=O)N(CC(F)(F)F)c4cccc(Cl)c4)C2O3)cc1 (centres undefined) | 1.09 µM | 3.42 µM | 3.96 µM | 49.1 µM | 0.06% | 45 | 73.3 | 3.76 µM | 4.4% | Active | 4.26 µM
CCN(c1cccc(OC)c1)S(=O)(=O)C1CC2OC1C(c1ccc(NC(=O)CCCCC[Se]C#N)cc1)=C2c1ccc(O)cc1 (centres undefined) | 2.81 µM | 19.8 µM | 13.3 µM | 91.5 µM | 0.2% | 32.5 | 2.55 | 9.25 µM | 0.51% | Active | 14.2 µM
CCN(c1ccccc1OC)S(=O)(=O)C1CC2OC1C(c1ccc(NC(=O)CCCCC[Se]C#N)cc1)=C2c1ccc(O)cc1 (centres undefined) | 0.42 µM | 5.52 µM | 6.56 µM | 15.9 µM | 0.03% | 37.9 | 94 | 3.69 µM | 2.82% | Active | 3.93 µM
CCN(c1cccc(F)c1)S(=O)(=O)C1CC2OC1C(c1ccc(NC(=O)CCCCC[Se]C#N)cc1)=C2c1ccc(O)cc1 (centres undefined) | 0.36 µM | 2.37 µM | 2.51 µM | 11 µM | 0.03% | 30.6 | 26.3 | 2.39 µM | 0.79% | Active | 3.39 µM
N#C[Se]CCCCCC(=O)Nc1ccc(C2=C(c3ccc(O)cc3)C3CC(S(=O)(=O)N(CC(F)(F)F)c4ccccc4)C2O3)cc1 (centres undefined) | 1.89 µM | 17.4 µM | 20.2 µM | 57.6 µM | 0.03% | 30.5 | 13 | 18.9 µM | 0.39% | Active | 27.7 µM
COc1ccc(N(CC(F)(F)F)S(=O)(=O)C2CC3OC2C(c2ccc(NC(=O)CCCCC[Se]C#N)cc2)=C3c2ccc(O)cc2)cc1 (centres undefined) | 0.25 µM | 3.96 µM | 3.73 µM | 36.7 µM | 0.05% | 147 | 46.2 | 3.06 µM | 2.31% | Active | 5.3 µM
CCN(c1cccc(Cl)c1)S(=O)(=O)C1CC2OC1C(c1ccc(NC(=O)CCCCC[Se]C#N)cc1)=C2c1ccc(O)cc1 (centres undefined) | 0.28 µM | 1.91 µM | 2.61 µM | 9.23 µM | 0.09% | 33 | 61.8 | 3.03 µM | 5.56% | Active | 3.83 µM
CCN(c1ccc(OC)cc1)S(=O)(=O)C1CC2OC1C(c1ccc(NC(=O)CCCCC[Se]C#N)cc1)=C2c1ccc(O)cc1 (centres undefined) | 0.33 µM | 4.76 µM | 5.8 µM | 37.9 µM | 0.01% | 115 | 730 | 4.92 µM | 7.3% | Active | 6.66 µM
N#C[Se]CCCCCC(=O)Nc1ccc(C2=C(c3ccc(O)cc3)C3CC(S(=O)(=O)N(CC(F)(F)F)c4ccc(Cl)cc4)C2O3)cc1 (centres undefined) | 0.25 µM | 5.11 µM | 6.69 µM | 32.4 µM | 0.01% | 130 | 752 | 4.4 µM | 7.52% | Active | 13.6 µM
CCN(c1ccc(F)cc1)S(=O)(=O)C1CC2OC1C(c1ccc(NC(=O)CCCCC[Se]C#N)cc1)=C2c1ccc(O)cc1 (centres undefined) | 0.25 µM | 2.43 µM | 2.64 µM | 18.1 µM | 0.07% | 72.2 | 159 | 2.74 µM | 11.2% | Active | 3.84 µM
N#C[Se]CCCCCC(=O)Nc1ccc(C2=C(c3ccc(O)cc3)C3CC(S(=O)(=O)N(CC(F)(F)F)c4cccc(F)c4)C2O3)cc1 (centres undefined) | 0.31 µM | 2.86 µM | 1.97 µM | 4.74 µM | 0.1% | 15.3 | 46.4 | 3.38 µM | 4.64% | Active | 2.87 µM
